These results are taken from ChEMBL document CHEMBL4177611, “Discovery of aminocyclohexene analogues as selective and orally bioavailable hNav1.7 inhibitors for analgesia” (Bioorg Med Chem Lett, 2017).

Calls of active or inactive are those of the source. Bounds are passed on as bounds.

Among the targets are Cytochrome P450 2C9 (Homo sapiens, UniProt P11712); Cytochrome P450 2C19 (Homo sapiens, UniProt P33261); Cytochrome P450 2D6 (Homo sapiens, UniProt P10635); Cytochrome P450 3A4 (Homo sapiens, UniProt P08684).
Series [1] has as its target Sodium channel protein type 9 subunit alpha (Homo sapiens, UniProt Q15858). The experiment in a line: Inhibition of human Nav1.7 expressed in CHO-K1 cells at -120 mV holding potential incubated over 5 mins measured at 15 secs interval by Qpatch clamp assay. It is filed as cell-based.
The nature of series [2]: Ratio of total drug level in iv dosed rat brain to plasma measured 2 hrs post dose. It is filed as ADME, organism-based. The following applies: read-out: BPR.
Series [3] is described as follows: in vitro. Particulars: human, Caco-2.
A short description of series [4]: in vitro. Particulars: human, Caco-2. The source holds these as a separate data set.
A short description of series [5]: Clearance in Sprague-Dawley rat administered as single iv bolus by LC-MS/MS analysis. It is filed as ADME, organism-based. The following applies: in vivo.
Series [6] can be described thus: Volume of distribution at steady state in Sprague-Dawley rat administered as single iv bolus by LC-MS/MS analysis. It is filed as ADME, organism-based. Particulars: in vivo, read-out: Vdss.
Series [7] can be described thus: AUC in Sprague-Dawley rat at 2 mg/kg administered as single dose via oral gavage by LC-MS/MS analysis. The series is classed as ADME, organism-based. Particulars: in vivo.
The nature of series [8]: Oral bioavailability in Sprague-Dawley rat at 2 mg/kg administered as single dose via gavage by LC-MS/MS analysis. The series is classed as ADME, organism-based. Particulars: in vivo.
A further series concerns the target T1, Cytochrome P450 1A2 (Homo sapiens, UniProt P05177).
T1 sequence (P05177 whole entry): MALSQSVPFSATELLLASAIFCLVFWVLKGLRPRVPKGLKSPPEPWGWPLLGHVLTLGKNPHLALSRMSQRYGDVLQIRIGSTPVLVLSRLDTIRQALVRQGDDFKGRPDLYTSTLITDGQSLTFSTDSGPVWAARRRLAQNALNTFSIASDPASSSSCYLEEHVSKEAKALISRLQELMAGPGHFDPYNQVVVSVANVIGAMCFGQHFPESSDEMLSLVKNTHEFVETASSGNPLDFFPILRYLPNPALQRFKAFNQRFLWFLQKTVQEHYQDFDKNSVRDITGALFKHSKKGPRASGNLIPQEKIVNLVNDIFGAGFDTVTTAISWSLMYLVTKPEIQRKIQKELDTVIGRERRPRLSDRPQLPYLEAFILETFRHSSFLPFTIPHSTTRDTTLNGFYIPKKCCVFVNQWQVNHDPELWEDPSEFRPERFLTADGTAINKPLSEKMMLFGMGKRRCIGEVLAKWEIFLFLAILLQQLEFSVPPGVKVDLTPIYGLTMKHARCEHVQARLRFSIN

Series [9] in a line: AUC in Sprague-Dawley rat at 10 mg/kg administered as single dose via oral gavage by LC-MS/MS analysis. The series is classed as ADME, organism-based. Particulars: in vivo.
Series [10] can be described thus: Oral bioavailability in Sprague-Dawley rat at 10 mg/kg administered as single dose via gavage by LC-MS/MS analysis. The series is classed as ADME, organism-based. The following applies: in vivo.
Series [11] has as its system Rattus norvegicus. The experiment in a line: Antinociceptive activity in Sprague-Dawley rat formalin-induced nociception model assessed as inhibition of formalin-induced flinches in phase 2 at 30 mg/kg, po administered via oral gavage 60 mins before formalin challenge measured for 1 hr post dose. It is filed as functional, organism-based.
In series [12] the test system is Rattus norvegicus. The series can be described thus: Antinociceptive activity in Sprague-Dawley rat formalin-induced nociception model assessed as inhibition of formalin-induced flinches in phase 1 at 30 mg/kg, po administered via oral gavage 60 mins before formalin challenge measured for 1 hr post dose. It is filed as functional, organism-based.
The subject of series [13] is Rattus norvegicus. The series can be described thus: Antiallodynic activity in Sprague-Dawley rat spinal nerve ligation model assessed as reduction in mechanical allodynia by measuring paw withdrawal threshold at 100 mg/kg, po measured at 1 to 2 hrs post dose. It is filed as functional, organism-based.
Series [14] has as its system Rattus norvegicus. The series can be described thus: Antiallodynic activity in Sprague-Dawley rat spinal nerve ligation model assessed as reduction in mechanical allodynia by measuring paw withdrawal threshold at 30 mg/kg, po measured at 1 to 2 hrs post dose. It is filed as functional, organism-based.
The species entered for series [15] is Homo sapiens. The experiment in a line: Selectivity ratio of IC50 for human Nav1.4 to IC50 for human Nav1.7 expressed in CHO-K1 cells. It is filed as cell-based.
The species named for series [16] is Homo sapiens. The experiment in a line: Selectivity ratio of IC50 for human Nav1.5 expressed in HEK293 cells to IC50 for human Nav1.7 expressed in CHO-K1 cells. It is filed as cell-based.

Sequence of Cytochrome P450 2D6 (P10635 whole entry): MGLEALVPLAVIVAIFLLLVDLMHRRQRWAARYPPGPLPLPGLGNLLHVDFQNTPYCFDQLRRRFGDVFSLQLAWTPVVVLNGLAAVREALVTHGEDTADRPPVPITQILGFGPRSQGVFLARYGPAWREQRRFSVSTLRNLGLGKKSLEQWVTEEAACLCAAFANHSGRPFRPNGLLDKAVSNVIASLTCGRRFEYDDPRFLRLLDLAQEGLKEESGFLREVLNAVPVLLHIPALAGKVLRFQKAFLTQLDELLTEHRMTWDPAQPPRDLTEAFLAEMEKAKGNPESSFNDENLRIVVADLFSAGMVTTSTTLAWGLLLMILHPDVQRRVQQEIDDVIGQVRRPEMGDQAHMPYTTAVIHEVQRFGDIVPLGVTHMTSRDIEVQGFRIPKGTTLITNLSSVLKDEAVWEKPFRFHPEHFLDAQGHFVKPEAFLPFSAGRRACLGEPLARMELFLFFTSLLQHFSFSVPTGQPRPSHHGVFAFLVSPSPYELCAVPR
Sequence of Cytochrome P450 2C19 (P33261 whole entry): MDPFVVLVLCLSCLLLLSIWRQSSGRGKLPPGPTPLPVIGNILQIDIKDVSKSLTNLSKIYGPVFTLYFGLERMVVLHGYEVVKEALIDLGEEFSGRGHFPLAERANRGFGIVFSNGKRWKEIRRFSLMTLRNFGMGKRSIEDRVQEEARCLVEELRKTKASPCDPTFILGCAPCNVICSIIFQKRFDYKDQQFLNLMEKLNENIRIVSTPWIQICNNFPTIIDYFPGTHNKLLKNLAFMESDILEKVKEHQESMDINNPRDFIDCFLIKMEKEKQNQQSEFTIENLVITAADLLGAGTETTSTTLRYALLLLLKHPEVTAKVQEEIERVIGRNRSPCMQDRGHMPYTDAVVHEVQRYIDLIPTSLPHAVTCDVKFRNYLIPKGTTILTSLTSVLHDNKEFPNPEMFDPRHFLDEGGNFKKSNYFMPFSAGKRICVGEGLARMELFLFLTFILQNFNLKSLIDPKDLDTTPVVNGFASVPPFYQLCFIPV
Sequence of Cytochrome P450 3A4 (P08684 whole entry): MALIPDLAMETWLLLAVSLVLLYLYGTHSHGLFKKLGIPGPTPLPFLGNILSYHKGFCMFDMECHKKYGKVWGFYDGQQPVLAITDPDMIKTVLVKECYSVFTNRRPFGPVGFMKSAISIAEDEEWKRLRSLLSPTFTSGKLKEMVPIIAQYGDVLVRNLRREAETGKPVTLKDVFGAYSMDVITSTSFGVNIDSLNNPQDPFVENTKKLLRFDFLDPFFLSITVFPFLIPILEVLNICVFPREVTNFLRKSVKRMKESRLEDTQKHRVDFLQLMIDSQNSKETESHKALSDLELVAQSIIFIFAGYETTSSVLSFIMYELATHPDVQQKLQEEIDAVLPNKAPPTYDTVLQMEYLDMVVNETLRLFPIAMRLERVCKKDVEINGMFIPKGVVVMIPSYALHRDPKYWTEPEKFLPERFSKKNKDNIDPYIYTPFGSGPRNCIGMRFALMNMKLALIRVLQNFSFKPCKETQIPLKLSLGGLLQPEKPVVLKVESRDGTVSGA
Sequence of Cytochrome P450 2C9 (P11712 whole entry): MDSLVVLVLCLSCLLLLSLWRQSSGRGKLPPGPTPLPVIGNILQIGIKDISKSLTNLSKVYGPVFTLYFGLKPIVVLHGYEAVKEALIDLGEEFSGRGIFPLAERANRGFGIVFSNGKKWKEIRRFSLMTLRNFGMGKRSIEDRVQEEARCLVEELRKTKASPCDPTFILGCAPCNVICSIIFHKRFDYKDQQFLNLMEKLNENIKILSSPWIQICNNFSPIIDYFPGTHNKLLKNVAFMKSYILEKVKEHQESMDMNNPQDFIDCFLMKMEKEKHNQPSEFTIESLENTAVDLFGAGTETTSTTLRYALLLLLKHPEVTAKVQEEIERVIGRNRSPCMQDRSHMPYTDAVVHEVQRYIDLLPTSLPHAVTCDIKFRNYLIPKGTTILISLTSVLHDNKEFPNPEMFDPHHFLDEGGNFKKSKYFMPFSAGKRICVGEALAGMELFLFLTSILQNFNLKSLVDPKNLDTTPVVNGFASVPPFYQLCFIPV
Sequence of Sodium channel protein type 9 subunit alpha (Q15858 whole entry): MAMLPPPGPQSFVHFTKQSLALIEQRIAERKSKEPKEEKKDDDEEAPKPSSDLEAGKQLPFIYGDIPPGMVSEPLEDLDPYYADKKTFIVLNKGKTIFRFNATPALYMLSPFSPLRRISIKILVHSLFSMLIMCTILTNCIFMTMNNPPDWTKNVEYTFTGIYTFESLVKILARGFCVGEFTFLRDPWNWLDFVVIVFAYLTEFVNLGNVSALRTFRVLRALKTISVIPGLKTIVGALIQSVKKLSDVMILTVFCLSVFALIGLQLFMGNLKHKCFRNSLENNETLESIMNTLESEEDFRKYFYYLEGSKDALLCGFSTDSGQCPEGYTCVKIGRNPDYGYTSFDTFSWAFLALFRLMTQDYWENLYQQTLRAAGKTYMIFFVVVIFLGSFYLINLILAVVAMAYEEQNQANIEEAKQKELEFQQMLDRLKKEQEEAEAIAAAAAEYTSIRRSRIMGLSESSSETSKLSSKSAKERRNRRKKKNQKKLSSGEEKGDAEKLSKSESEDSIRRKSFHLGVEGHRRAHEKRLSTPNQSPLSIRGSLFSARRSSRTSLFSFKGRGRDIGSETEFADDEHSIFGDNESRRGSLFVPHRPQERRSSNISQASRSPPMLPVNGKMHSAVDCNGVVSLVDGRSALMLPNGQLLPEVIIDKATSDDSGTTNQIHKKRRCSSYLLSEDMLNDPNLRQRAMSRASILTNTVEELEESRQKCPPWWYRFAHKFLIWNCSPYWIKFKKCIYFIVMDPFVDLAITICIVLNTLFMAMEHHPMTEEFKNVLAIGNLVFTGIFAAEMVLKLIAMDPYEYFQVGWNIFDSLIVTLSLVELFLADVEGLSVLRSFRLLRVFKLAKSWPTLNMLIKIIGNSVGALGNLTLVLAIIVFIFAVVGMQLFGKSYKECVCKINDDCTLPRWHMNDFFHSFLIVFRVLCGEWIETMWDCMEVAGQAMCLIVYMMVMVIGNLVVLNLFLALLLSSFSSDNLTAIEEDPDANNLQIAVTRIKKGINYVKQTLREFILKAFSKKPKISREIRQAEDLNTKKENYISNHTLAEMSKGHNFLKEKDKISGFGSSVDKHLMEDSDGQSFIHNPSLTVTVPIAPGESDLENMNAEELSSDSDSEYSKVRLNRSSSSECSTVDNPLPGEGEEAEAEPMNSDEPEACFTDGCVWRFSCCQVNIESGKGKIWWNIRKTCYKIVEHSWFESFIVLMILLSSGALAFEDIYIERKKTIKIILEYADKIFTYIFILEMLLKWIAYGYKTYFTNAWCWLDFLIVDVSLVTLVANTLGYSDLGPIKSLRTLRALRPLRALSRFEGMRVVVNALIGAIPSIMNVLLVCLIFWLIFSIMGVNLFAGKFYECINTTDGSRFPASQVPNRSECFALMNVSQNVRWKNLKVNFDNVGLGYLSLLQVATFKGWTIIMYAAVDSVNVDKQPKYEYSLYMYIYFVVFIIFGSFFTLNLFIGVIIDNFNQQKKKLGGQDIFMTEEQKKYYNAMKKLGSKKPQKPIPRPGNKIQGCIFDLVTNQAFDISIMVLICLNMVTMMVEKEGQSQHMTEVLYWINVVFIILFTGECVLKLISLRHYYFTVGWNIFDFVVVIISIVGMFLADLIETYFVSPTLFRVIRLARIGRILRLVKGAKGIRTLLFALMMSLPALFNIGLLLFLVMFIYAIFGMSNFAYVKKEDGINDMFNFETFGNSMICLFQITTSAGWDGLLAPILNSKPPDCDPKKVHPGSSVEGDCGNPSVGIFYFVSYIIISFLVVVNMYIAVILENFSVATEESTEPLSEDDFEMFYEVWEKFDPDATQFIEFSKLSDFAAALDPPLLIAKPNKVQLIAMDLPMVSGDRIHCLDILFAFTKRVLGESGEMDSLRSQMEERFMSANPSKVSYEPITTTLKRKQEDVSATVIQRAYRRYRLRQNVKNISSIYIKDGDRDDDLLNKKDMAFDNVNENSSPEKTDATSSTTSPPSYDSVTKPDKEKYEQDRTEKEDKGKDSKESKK

Take `CN[C@@H]1CCC=C(c2ccc(F)cc2)[C@H]1COc1cc(F)c(S(=O)(=O)Nc2cscn2)cc1Cl.Cl` (racemic): in series [1], half-maximal inhibition (IC50) required 170 nM. In series [2], the Kp at 2 h stood at 0.04. The Papp A→B (as a rule, the apparent permeability from the apical to the basolateral side of a cell layer) at 2 h, 2 µM in the series “in vitro [3]” stood at 0.2 ×10⁻⁶ cm/s. Also, the efflux ratio (as a rule, the permeability from basolateral to apical divided by that in the opposite direction, in the common usage) at 2 h, 2 µM in the series “in vitro [4]” was 127.
As to `CC(=O)N[C@@H]1CCC=C(c2ccc(F)cc2)[C@H]1COc1cc(F)c(S(=O)(=O)Nc2cscn2)cc1Cl` (racemic), the midpoint of inhibition in series [1], the IC50, lay at 510 nM.
`CC(C)N[C@@H]1CCC=C(c2ccc(F)cc2)[C@H]1COc1cc(F)c(S(=O)(=O)Nc2cscn2)cc1Cl.Cl` (racemic): in series [1], the IC50 (in general, the concentration at which inhibition is half-maximal) came to 94 nM. Also, the Kp at 2 h in series [2] was found to be 0.08. Further, in the series “in vitro [3]”, the apparent permeability from apical to basolateral (Papp A→B) at 2 h, 2 µM worked out at 1.1 ×10⁻⁶ cm/s. Also, the efflux ratio at 2 h, 2 µM in the series “in vitro [4]” was determined as 37.
In the case of `Cl.N[C@@H]1CCC=C(c2ccc(F)cc2)[C@H]1CSc1cc(F)c(S(=O)(=O)Nc2nccs2)cc1Cl`, the IC50 is 5 nM in [1]; more than 50000 nM against Cytochrome P450 1A2; 100 nM against Cytochrome P450 2C9; 3300 nM against Cytochrome P450 2C19; 18000 nM against Cytochrome P450 2D6; 5100 nM on Cytochrome P450 3A4. The clearance – broadly, the rate of elimination divided by the concentration – in [5] came to 46.5 mL/min/kg. Further, in [6], the Vd is 6.05 L/kg. The AUC (as a rule, concentration integrated over time) in series [7] came to 0.17 µM·h. Moreover, in [8], the bioavailability (commonly the share of a dose that reaches the circulation, judged against a reference dose that is usually intravenous) amounted to 14%.
The molecule `CCN(CC)[C@@H]1CCC=C(c2ccc(F)cc2)[C@H]1COc1cc(F)c(S(=O)(=O)Nc2cscn2)cc1Cl` (racemic) had an IC50 in series [1] of 310 nM.
As to `Cl.N[C@@H]1CCC=C(c2ccc(F)cc2)[C@H]1CNc1cc(F)c(S(=O)(=O)Nc2nccs2)cc1Cl`, the IC50 in series [1] is 33 nM; against Cytochrome P450 1A2, more than 50000 nM; at Cytochrome P450 2C9, 500 nM; against Cytochrome P450 2C19, 5600 nM; against Cytochrome P450 2D6 it was 42600 nM; against Cytochrome P450 3A4 it was more than 50000 nM. In addition, the clearance in series [5] is 44.2 mL/min/kg. Moreover, the Vd in series [6] turned out to be 4.24 L/kg. Moreover, in series [7], the AUC amounted to 0.04 µM·h. Moreover, in series [8], the bioavailability came to 3%.
Turning to `CCN[C@@H]1CCC=C(c2ccc(F)cc2)[C@H]1COc1cc(F)c(S(=O)(=O)Nc2nccs2)cc1Cl.Cl` (racemic), the IC50 in series [1] is 48 nM; on Cytochrome P450 1A2 it was more than 50000 nM; against Cytochrome P450 2C9, 200 nM; at Cytochrome P450 2C19, 1500 nM; against Cytochrome P450 2D6, 4500 nM; on Cytochrome P450 3A4 it was 21600 nM. This molecule yielded a clearance in series [5] of 66.6 mL/min/kg. For the same molecule, the Vd in [6] is 6.21 L/kg. This molecule showed an AUC in series [9] of 0.12 µM·h. For the same molecule, the bioavailability in series [10] came out at 3%.
For `Cl.N[C@@H]1CCC=C(c2ccc(F)cc2)[C@H]1CSc1cc(F)c(S(=O)(=O)Nc2cscn2)cc1Cl`, the IC50 in series [1] is 59 nM. In addition, the clearance in [5] amounted to 26.1 mL/min/kg. Further, the Vd in series [6] was determined as 3.22 L/kg. The molecule further gave an AUC in series [7] of 0.62 µM·h. In series [8], the bioavailability is 27%.
Regarding `Cl.N[C@@H]1CCC=C(c2ccc(F)cc2)[C@H]1COc1cc(F)c(S(=O)(=O)Nc2nccs2)cc1Cl` (racemic), the IC50 is 2 nM in series [1]; more than 50000 nM against Cytochrome P450 1A2; 100 nM against Cytochrome P450 2C9; 8000 nM on Cytochrome P450 2C19; 18000 nM against Cytochrome P450 2D6; more than 50000 nM against Cytochrome P450 3A4. The molecule also returned a clearance in series [5] of 29 mL/min/kg. In addition, the Vd in [6] amounted to 3.26 L/kg. In series [9], this molecule had an AUC of 0.03 µM·h. The same molecule gave a bioavailability in [10] of 0.3%.
As for `CCN[C@@H]1CCC=C(c2ccc(F)cc2)[C@H]1COc1cc(F)c(S(=O)(=O)Nc2cscn2)cc1Cl`, the inhibition entry in the series on Rattus norvegicus [11] is “Active”. Moreover, the inhibition result in the series with Rattus norvegicus [12] was “inactive”. Also, the result in the series on Rattus norvegicus [13] was Active. Besides, in the series on Rattus norvegicus [14], the result was inactive. For the same molecule, the Ratio IC50 in the series listed under Homo sapiens [15] and in the series filed under Homo sapiens [16] was more than 30 throughout.
`O=S(=O)(Nc1cscn1)c1cc(Cl)c(OC[C@@H]2C(c3ccc(F)cc3)=CCC[C@H]2n2ccnc2)cc1F` (racemic): the IC50 in series [1] came to 2340 nM.
On to `CN(C)[C@@H]1CCC=C(c2ccc(F)cc2)[C@H]1COc1cc(F)c(S(=O)(=O)Nc2cscn2)cc1Cl.Cl` (racemic), for which, in [1], the IC50 stood at 14 nM. Besides, in [2], the Kp at 2 h turned out to be 0.6. In the series “in vitro [3]”, this molecule gave a Papp A→B at 2 h, 2 µM of 10 ×10⁻⁶ cm/s. Moreover, in the series “in vitro [4]”, the efflux ratio at 2 h, 2 µM turned out to be 1.8.
Molecule `O=S(=O)(Nc1cscn1)c1cc(Cl)c(OC[C@@H]2C(c3ccc(F)cc3)=CCC[C@H]2N2CCC2)cc1F` (racemic) came in with an IC50 in series [1] of 1150 nM.
In series [1], `CCN[C@@H]1CCC=C(c2ccc(F)cc2)[C@H]1COc1cc(F)c(S(=O)(=O)Nc2cscn2)cc1Cl.Cl` (racemic) yielded an IC50 of 59 nM. Besides, the Kp at 2 h in [2] is 0.08. The molecule further came in with a Papp A→B at 2 h, 2 µM in “in vitro [3]” of 0.4 ×10⁻⁶ cm/s. Moreover, the efflux ratio at 2 h, 2 µM in the series “in vitro [4]” came to 70.
For the molecule `CCN[C@@H]1CCC=C(c2ccc(F)cc2)[C@H]1CNc1cc(F)c(S(=O)(=O)Nc2nccs2)cc1Cl.Cl`, the IC50 is 6 nM in [1]; more than 50000 nM against Cytochrome P450 1A2; 200 nM at Cytochrome P450 2C9; 2100 nM against Cytochrome P450 2C19; 14100 nM against Cytochrome P450 2D6; 16500 nM on Cytochrome P450 3A4. In series [5], this molecule had a clearance of 27.5 mL/min/kg. Besides, the Vd in series [6] worked out at 3.07 L/kg. The molecule further registered an AUC in series [7] of 0.29 µM·h. The same molecule came in with a bioavailability in [8] of 14%.
In turn, `CCN[C@@H]1CCC=C(c2ccc(F)cc2)[C@H]1CNc1cc(F)c(S(=O)(=O)Nc2cscn2)cc1Cl` showed an IC50 in [1] of 200 nM.
The molecule `O=S(=O)(Nc1cscn1)c1cc(Cl)c(OC[C@@H]2C(c3ccc(F)cc3)=CCC[C@H]2n2cnnc2)cc1F` (racemic) gave an IC50 in [1] of 770 nM.
In turn, `CCN[C@@H]1CCC=C(c2ccc(F)cc2)[C@H]1CSc1cc(F)c(S(=O)(=O)Nc2cscn2)cc1Cl` displayed an IC50 in series [1] of 100 nM.
